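The compound was tested at five concentrations on cells cultured in 96-well plates, with a 48-hour exposure period. GI50 = concentration required for 50% inhibition of growth.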 Activity calls are given as the source filed them. Rule as the data show it: active = GI50 up to about 1.1 µM and inactive = higher.
Columns and labels:
Assay in all cases: DTP human tumour cell line panel, 48 h
SN12C = test system: SN12C
UACC-62 = test system: UACC-62
SK-MEL-28 = test system: SK-MEL-28
Malme-3M = test system: Malme-3M
U-251 = test system: U-251
ACHN = test system: ACHN
HT-29 = test system: HT-29
RXF 393 = test system: RXF 393
DU-145 = test system: DU-145
OVCAR-3 = test system: OVCAR-3
COLO 205 = test system: COLO 205
PC-3 = test system: PC-3
MDA-MB-231 = test system: MDA-MB-231
Hs-578T = test system: Hs-578T
CAKI-1 = test system: CAKI-1
HCT-116 = test system: HCT-116
NCI-H522 = test system: NCI-H522
K562 = test system: K562
NCI-H460 = test system: NCI-H460
T47D = test system: T47D

| SMILES | GI50 (SN12C) | GI50 (UACC-62) | GI50 (SK-MEL-28) | GI50 (Malme-3M) | GI50 (U-251) | GI50 (ACHN) | GI50 (HT-29) | GI50 (RXF 393) | GI50 (DU-145) | GI50 (OVCAR-3) | GI50 (COLO 205) | GI50 (PC-3) | GI50 (MDA-MB-231) | GI50 (Hs-578T) | GI50 (CAKI-1) | GI50 (HCT-116) | GI50 (NCI-H522) | GI50 (K562) | GI50 (NCI-H460) | GI50 (T47D) |
| --- | --- | --- | --- | --- | --- | --- | --- | --- | --- | --- | --- | --- | --- | --- | --- | --- | --- | --- | --- | --- |
| O=c1c2cc([N+](=O)[O-])ccc2[nH]n1Cc1ccccn1 | > 100 µM (inactive) | > 100 µM (inactive) | > 100 µM (inactive) | > 100 µM (inactive) | > 100 µM (inactive) | > 100 µM (inactive) | > 100 µM (inactive) | > 100 µM (inactive) | > 100 µM (inactive) | > 100 µM (inactive) | > 100 µM (inactive) | > 100 µM (inactive) | > 100 µM (inactive) | > 100 µM (inactive) | > 100 µM (inactive) | > 100 µM (inactive) | > 100 µM (inactive) | > 100 µM (inactive) | > 100 µM (inactive) |  |
| C/C(=N\NC(=S)N1CCN(c2ccccn2)CC1)c1nccs1 | 1.2 µM (inactive) | 0.122 µM (active) | 0.792 µM (active) | 3.82 µM (inactive) | 0.405 µM (active) | 0.355 µM (active) | 0.335 µM (active) | 3.72 µM (inactive) | 0.29 µM (active) |  | < 0.0248 µM (active) | 0.0548 µM (active) | 0.022 µM (active) | 2.8 µM (inactive) | 2.42 µM (inactive) | < 0.0441 µM (active) |  | 0.01 µM (active) | 0.104 µM (active) | 0.0391 µM (active) |
| CC(=O)O[C@H]1C(=O)[C@@]2(C)[C@H]([C@H](OC(=O)c3ccccc3)[C@]3(O)C[C@H](OC(=O)[C@H](O)[C@@H](NC(=O)c4ccc(N(C)C)cc4)c4ccccc4)C(C)=C1C3(C)C)[C@]1(OC(C)=O)CO[C@@H]1C[C@@H]2O | < 0.005 µM (active) | < 0.005 µM (active) | > 50 µM (inactive) |  | < 0.005 µM (active) | 0.0718 µM (active) | < 0.005 µM (active) | 0.00887 µM (active) | < 0.005 µM (active) | < 0.005 µM (active) | < 0.005 µM (active) | < 0.005 µM (active) | 0.0543 µM (active) | < 0.005 µM (active) | 0.339 µM (active) | < 0.005 µM (active) | < 0.005 µM (active) | < 0.005 µM (active) | < 0.005 µM (active) |  |
| O=C1c2ccccc2-c2c1c(-c1ccc(O)cc1O)nc1ccc3ccccc3c21 | > 100 µM (inactive) | > 100 µM (inactive) | > 100 µM (inactive) | > 100 µM (inactive) | 75.2 µM (inactive) | > 100 µM (inactive) | > 100 µM (inactive) |  | > 100 µM (inactive) |  | > 100 µM (inactive) | > 100 µM (inactive) | 27.8 µM (inactive) | 21.1 µM (inactive) | > 100 µM (inactive) | > 100 µM (inactive) |  | > 100 µM (inactive) | > 100 µM (inactive) | > 100 µM (inactive) |
| CC(=O)c1ccccc1NCC(=O)Nn1cnc2ccc(S(=O)(=O)Nc3ccccc3C(C)=O)cc2c1=O | > 100 µM (inactive) | > 100 µM (inactive) | > 100 µM (inactive) | > 100 µM (inactive) | > 100 µM (inactive) | > 100 µM (inactive) | > 100 µM (inactive) |  | > 100 µM (inactive) | > 100 µM (inactive) | > 100 µM (inactive) | > 100 µM (inactive) | > 100 µM (inactive) | 33.7 µM (inactive) | > 100 µM (inactive) | > 100 µM (inactive) | > 100 µM (inactive) | > 100 µM (inactive) | > 100 µM (inactive) |  |
| CC(C)=CCC/C(C)=C/CC/C(C)=C/CC/C(C=O)=C/CC/C(C)=C\CC/C(C)=C/CC/C(C)=C/CC/C(C)=C/CC1=CC(=O)C=CC1=O | > 100 µM (inactive) | 21.1 µM (inactive) | > 100 µM (inactive) | 21.8 µM (inactive) | 69.7 µM (inactive) | > 100 µM (inactive) |  |  | > 100 µM (inactive) | 54.2 µM (inactive) | 73.8 µM (inactive) | > 100 µM (inactive) | > 100 µM (inactive) | 62.4 µM (inactive) | 33 µM (inactive) | 73.5 µM (inactive) | 14.9 µM (inactive) | > 100 µM (inactive) | > 100 µM (inactive) | 10.5 µM (inactive) |
| COc1ccc(C2=Nn3c(nnc3-c3ccccc3)S/C2=C\c2ccc(-c3ccc([N+](=O)[O-])cc3)o2)cc1 | 18.2 µM (inactive) | 48.3 µM (inactive) | 69.7 µM (inactive) | 34.8 µM (inactive) | 22.6 µM (inactive) | 64.1 µM (inactive) | 26.4 µM (inactive) |  |  | 23.3 µM (inactive) | 25.8 µM (inactive) | 27.3 µM (inactive) |  | 33.7 µM (inactive) | 51.2 µM (inactive) | 29.6 µM (inactive) | 12.8 µM (inactive) | 13.3 µM (inactive) | 27.4 µM (inactive) | 18.6 µM (inactive) |

Reference: ChEMBL document CHEMBL1201862, “PubChem BioAssay data set” (2004)
